Experimental data: US20130302442A1, “METHODS OF USING (4S,4AS,5AR,12AS)-4-DIMETHYLAMINO-3,10,12,12A-TETRAHYDROXY-7-[(METHOXY(METHYL)AMINO)-METHYL]-1,11-DIOXO-1,4,4A,5,5A,6,11,12A-OCTAHYDRO-NAPHTHACENE-2-CARBOXYLIC ACID AMIDE” (priority 2012, published 2013)
Converted amounts (≈) assume the structure as drawn. Where two headings read alike, the source gives them in different places.

Key:
[1] = test system: Lactobacillus acidophilus; assay: In vitro MIC testing against anaerobic bacteria; format: cell-based; details: Lactobacillus acidophilus 0681
[2] = test system: E. faecium; assay: In vitro MIC testing, antibacterial spectrum of activity; format: cell-based; details: for MIC / MIC50 / MIC90: Enterococcus faecium; for MIC50: read-out: MIC50; for MIC90: read-out: MIC90
[3] = test system: S. aureus; assay: as above; format: cell-based, Staphylococcus aureus; details: for MIC50 / MIC90 / MIC: Staphylococcus aureus; for MIC50: read-out: MIC50; for MIC90: read-out: MIC90
[4] = test system: P. acnes; assay: as above; format: cell-based, Propionibacterium acnes; details: for MIC50: read-out: MIC50; for MIC90: read-out: MIC90
[5] = test system: Peptostreptococcus anaerobius; assay: In vitro MIC testing against anaerobic bacteria; format: cell-based
[6] = test system: Chlamydia trachomatis; assay: Susceptibility testing (MIC, MBC) of 10 isolates of C. trachomatis in HEp-2 cells; format: cell-based
[7] = test system: Streptococcus constellatus; assay: In vitro MIC testing against anaerobic bacteria; format: cell-based; details: Streptococcus constellatus, ATCC27823
[8] = test system: community-acquired methicillin-resistant S. aureus (MRSA-CA); assay: In vitro MIC against isolates of MRSA-CA; format: cell-based, Staphylococcus aureus
[9] = test system: Bifidobacterium infantis; assay: In vitro MIC testing against anaerobic bacteria; format: cell-based; details: ATCC15702; Bifidobacterium infantis 3966, ATCC 15702
[10] = test system: Chlamydia trachomatis; assay: In vitro susceptibility testing of Chlamydia trachomatis in HEp-2 cells (first study); format: cell-based; details: Chlamydia trachomatis, C. trachomatis strains, read-out: MIC at which 90% of the strains were inhibited (MIC90)
[11] = test system: Chlamydia pneumoniae; assay: Susceptibility testing (MIC, MBC) of 10 isolates of C. pneumoniae in HEp-2 cells; format: cell-based
[12] = test system: methicillin-sensitive S. aureus (MSSA); assay: In vitro MIC against isolates of MSSA; format: cell-based, Staphylococcus aureus
[13] = test system: hospital-associated methicillin-resistant S. aureus (MRSA-HA); assay: In vitro MIC against isolates of MRSA-HA; format: cell-based, Staphylococcus aureus; details: MRSA-HA (33 isolates)
[14] = test system: Peptostreptococcus micros; assay: In vitro MIC testing against anaerobic bacteria; format: cell-based; details: Parvimonas micra, read-out: MIC
[15] = test system: E. cloacae; assay: In vitro MIC testing, antibacterial spectrum of activity; format: cell-based; details: Enterobacter cloacae; E. cloacae (30 isolates)
[16] = test system: Salmonella Spp.; assay: as above; format: cell-based; details: Salmonella
[17] = E. faecium strain PBS # 965, tetM
[18] = E. faecium strain PBS # 1323, tetK
[19] = E. faecium strain PBS # 1324, tetO
[20] = MRSA, S. aureus [MRSA] (31 isolates)
[21] = MSSA, S. aureus [MSSA] (32 isolates)
[22] = Cutibacterium acnes, P. acnes [clinical isolates] (55 isolates)
[23] = Cutibacterium acnes, P. acnes [tetS] (13 isolates)
[24] = Peptostreptococcus anaerobius 3526
[25] = Peptostreptococcus anaerobius 3531
[26] = Staphylococcus aureus, MRSA-CA (33 isolates)

C[C@H]1c2cccc(O)c2C(=O)C2=C(O)[C@]3(O)C(=O)C(C(N)=O)=C(O)[C@@H](N(C)C)[C@@H]3[C@@H](O)[C@@H]21 [Doxycycline, doxycycline]
MIC [1]: 2 µg/mL (≈ 4.5 µM)
MIC Range ([2]; E. faecium [VRE] (30 isolates)): 0.06 to 16 µg/mL
MIC Range ([2]; E. faecium [VSE] (32 isolates)): 0.06 to 32 µg/mL
MIC Range ([2]; E. faecium [tetR] (6 isolates)): 4 to 16 µg/mL
MIC [2, 17]: 4 µg/mL (≈ 9 µM)
MIC [2, 18]: 4 µg/mL (≈ 9 µM)
MIC [2, 19]: 4 µg/mL (≈ 9 µM)
MIC50 ([2]; E. faecium [VRE] (30 isolates)): 1 µg/mL (≈ 2.25 µM)
MIC90 ([2]; E. faecium [VRE] (30 isolates)): 8 µg/mL (≈ 18 µM)
MIC50 ([2]; E. faecium [VSE] (32 isolates)): 0.5 µg/mL (≈ 1.13 µM)
MIC90 ([2]; E. faecium [VSE] (32 isolates)): 16 µg/mL (≈ 36 µM)
MIC Range ([3]; S. aureus [MRSA] (31 isolates)): 0.12 to 2 µg/mL
MIC Range ([3]; S. aureus [MSSA] (32 isolates)): 0.12 to 8 µg/mL
MIC Range ([3]; S. aureus [tetR] (10 isolates)): 1 to 16 µg/mL
MIC Range ([3]; S. aureus [tetS] (20 isolates)): ≦0.06-0.25 μg/mL
MIC50 [3, 20]: 0.12 µg/mL (≈ 0.27 µM)
MIC90 [3, 20]: 0.25 µg/mL (≈ 0.563 µM)
MIC50 [3, 21]: 0.12 µg/mL (≈ 0.27 µM)
MIC90 [3, 21]: 0.25 µg/mL (≈ 0.563 µM)
MIC50 ([3]; S. aureus [tetR] (10 isolates)): 4 µg/mL (≈ 9 µM)
MIC90 ([3]; S. aureus [tetR] (10 isolates)): 16 µg/mL (≈ 36 µM)
MIC50 ([3]; S. aureus [tetS] (20 isolates)): ≤ 0.06 µg/mL
MIC90 ([3]; S. aureus [tetS] (20 isolates)): 0.25 µg/mL (≈ 0.563 µM)
MIC ([3]; S. aureus strain PBS # 1309, tetK): 2 µg/mL (≈ 4.5 µM)
MIC ([3]; S. aureus strain PBS # 1310, tetM): 16 µg/mL (≈ 36 µM)
MIC ([3]; S. aureus strain PBS # 1739, tet38): 2 µg/mL (≈ 4.5 µM)
MIC ([4]; Cutibacterium acnes): 8 µg/mL (≈ 18 µM)
MIC50 [4, 22]: 0.5 µg/mL (≈ 1.13 µM)
MIC90 [4, 22]: 2 µg/mL (≈ 4.5 µM)
MIC50 [4, 23]: 0.25 µg/mL (≈ 0.563 µM)
MIC90 [4, 23]: 1 µg/mL (≈ 2.25 µM)
MIC Range ([4]; P. acnes [clinical isolates] (55 isolates)): 0.25 to 16 µg/mL
MIC Range ([4]; P. acnes [tetR] (2 isolates)): 8-8 μg/mL
MIC Range ([4]; P. acnes [tetS] (2 isolates)): 0.12 to 0.5 µg/mL
MIC Range ([4]; P. acnes [tetS] (13 isolates)): 0.25 to 1 µg/mL
MIC [5, 24]: 2 µg/mL (≈ 4.5 µM)
MIC [5, 25]: 4 µg/mL (≈ 9 µM)
MIC Range ([6]; 72 h): 0.03 to 0.25 µg/mL
MIC50 ([6]; Chlamydia trachomatis, 72 h): 0.06 µg/mL (≈ 0.135 µM)
MIC90 ([6]; Chlamydia trachomatis, 72 h): 0.125 µg/mL (≈ 0.281 µM)
MBC ([6]; Chlamydia trachomatis, after passage, read-out: MBC 90%): 0.125 µg/mL (≈ 0.281 µM)
MBC Range ([6]; after passage): 0.03 to 0.25 µg/mL
MIC [7]: 16 µg/mL (≈ 36 µM)
MIC Range ([8]; MRSA-CA (33 isolates)): 0.12 to 8 µg/mL
MIC50 [8, 26]: 0.12 µg/mL (≈ 0.27 µM)
MIC90 [8, 26]: 2 µg/mL (≈ 4.5 µM)
MIC ([8]; Staphylococcus aureus, single strain of doxycycline-resistant MRSA-CA): 8 µg/mL (≈ 18 µM)
MIC [9]: 0.5 µg/mL (≈ 1.13 µM)
MIC90 [10]: 0.125 µg/mL (≈ 0.281 µM)
MIC Range ([11]; 72 h): 0.0625 to 0.125 µg/mL
MIC50 ([11]; Chlamydia pneumoniae, 72 h): 0.125 µg/mL (≈ 0.281 µM)
MIC90 ([11]; Chlamydia pneumoniae, 72 h): 0.125 µg/mL (≈ 0.281 µM)
MBC ([11]; Chlamydia pneumoniae, after passage, read-out: MBC 90%): 0.5 µg/mL (≈ 1.13 µM)
MBC 90% ([11]; after passage): 0.5 µg/mL (≈ 1.13 µM)
MBC Range ([11]; after passage): 0.25 to 0.5 µg/mL
MIC Range ([12]; MSSA (34 isolates)): 0.12 to 8 µg/mL
MIC50 ([12]; Staphylococcus aureus, MSSA (34 isolates)): 0.25 µg/mL (≈ 0.563 µM)
MIC90 ([12]; Staphylococcus aureus, MSSA (34 isolates), read-out: MIC90): 0.5 µg/mL (≈ 1.13 µM)
MIC ([12]; Staphylococcus aureus, single strain of doxycycline-resistant MSSA): 8 µg/mL (≈ 18 µM)
MIC Range [13]: 0.12 to 1 µg/mL
MIC50 ([13]; Staphylococcus aureus): 0.25 µg/mL (≈ 0.563 µM)
MIC90 ([13]; Staphylococcus aureus): 0.5 µg/mL (≈ 1.13 µM)
MIC ([14]; Peptostreptococcus micros 3432): 0.12 µg/mL (≈ 0.27 µM)
MIC ([14]; Peptostreptococcus micros 3545): 0.5 µg/mL (≈ 1.13 µM)

CN(C)c1ccc(O)c2c1C[C@H]1C[C@H]3[C@H](N(C)C)C(O)=C(C(N)=O)C(=O)[C@@]3(O)C(O)=C1C2=O [Minocycline, minocycline]
MIC [1]: 0.5 µg/mL (≈ 1.09 µM)
MIC Range ([2]; E. faecium [tetR] (6 isolates)): 2 to 32 µg/mL
MIC Range ([2]; E. faecium [tetS] (4 isolates)): 0.25 to 0.5 µg/mL
MIC [2, 17]: 8 µg/mL (≈ 17.5 µM)
MIC [2, 18]: 2 µg/mL (≈ 4.37 µM)
MIC [2, 19]: 2 µg/mL (≈ 4.37 µM)
MIC50 ([2]; E. faecium [VRE] (30 isolates)): 0.25 µg/mL (≈ 0.546 µM)
MIC90 ([2]; E. faecium [VRE] (30 isolates)): 16 µg/mL (≈ 35 µM)
MIC50 ([2]; E. faecium [VSE] (32 isolates)): 0.12 µg/mL (≈ 0.262 µM)
MIC90 ([2]; E. faecium [VSE] (32 isolates)): 16 µg/mL (≈ 35 µM)
MIC [5, 24]: 1 µg/mL (≈ 2.19 µM)
MIC [5, 25]: 2 µg/mL (≈ 4.37 µM)
MIC [9]: 0.25 µg/mL (≈ 0.546 µM)
MIC90 [15]: 16 µg/mL (≈ 35 µM)
MIC50 [16]: 2 µg/mL (≈ 4.37 µM)
MIC ([14]; Peptostreptococcus micros 3432): 0.06 µg/mL (≈ 0.131 µM)
MIC ([14]; Peptostreptococcus micros 3545): 0.25 µg/mL (≈ 0.546 µM)
